Here are results for 3 compounds from BindingDB's records for doi:10.1021/acschembio.7b00369 (Baylor College of Medicine, 2017).

Molecules are shown by their SMILES. “And” between values parts separate entries of the source, which are not always exact repeats. Identical values can stand only once.

Holding throughout (test): Microfluidic Mobility-Shift Assay
What all share (settings): pH 7

Experiment [1] addresses T1, Isoform Beta of cGMP-dependent protein kinase 1 [1-351] (Human, UniProt Q13976).
T1 construct: 1-351
T1 sequence (Q13976 whole entry): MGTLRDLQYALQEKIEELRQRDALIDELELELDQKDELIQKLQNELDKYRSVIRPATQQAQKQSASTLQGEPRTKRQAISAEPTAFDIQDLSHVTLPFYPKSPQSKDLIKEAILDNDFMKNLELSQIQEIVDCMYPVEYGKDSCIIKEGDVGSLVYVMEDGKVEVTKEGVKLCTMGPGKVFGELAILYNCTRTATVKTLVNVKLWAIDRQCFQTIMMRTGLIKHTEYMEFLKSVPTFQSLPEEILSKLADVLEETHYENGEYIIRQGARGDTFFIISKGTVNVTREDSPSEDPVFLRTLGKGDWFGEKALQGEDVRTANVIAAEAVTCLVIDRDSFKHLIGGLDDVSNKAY

For experiment [2], the target named is T2, cGMP-dependent protein kinase 2 [41-418,G232E] (Human, UniProt Q13237, G232E).
T2 construct: 41-418
T2 sequence (Q13237 41-418 G232E): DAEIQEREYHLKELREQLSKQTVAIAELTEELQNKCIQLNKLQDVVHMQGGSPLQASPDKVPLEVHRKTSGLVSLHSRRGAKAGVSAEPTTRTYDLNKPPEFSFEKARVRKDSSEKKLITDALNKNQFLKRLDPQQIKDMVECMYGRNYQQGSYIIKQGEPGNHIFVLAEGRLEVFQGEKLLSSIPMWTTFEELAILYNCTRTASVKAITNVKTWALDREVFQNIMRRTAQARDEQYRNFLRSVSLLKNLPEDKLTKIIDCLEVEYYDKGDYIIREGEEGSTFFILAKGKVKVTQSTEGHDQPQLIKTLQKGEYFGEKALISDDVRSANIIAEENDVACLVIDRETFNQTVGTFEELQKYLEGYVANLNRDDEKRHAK

The target in experiment [3] is T3, Isoform Beta of cGMP-dependent protein kinase 1 [5-676,G306E] (Human, UniProt Q13976, G306E).
T3 construct: 5-676
T3 sequence (Q13976 as listed by the source G306E): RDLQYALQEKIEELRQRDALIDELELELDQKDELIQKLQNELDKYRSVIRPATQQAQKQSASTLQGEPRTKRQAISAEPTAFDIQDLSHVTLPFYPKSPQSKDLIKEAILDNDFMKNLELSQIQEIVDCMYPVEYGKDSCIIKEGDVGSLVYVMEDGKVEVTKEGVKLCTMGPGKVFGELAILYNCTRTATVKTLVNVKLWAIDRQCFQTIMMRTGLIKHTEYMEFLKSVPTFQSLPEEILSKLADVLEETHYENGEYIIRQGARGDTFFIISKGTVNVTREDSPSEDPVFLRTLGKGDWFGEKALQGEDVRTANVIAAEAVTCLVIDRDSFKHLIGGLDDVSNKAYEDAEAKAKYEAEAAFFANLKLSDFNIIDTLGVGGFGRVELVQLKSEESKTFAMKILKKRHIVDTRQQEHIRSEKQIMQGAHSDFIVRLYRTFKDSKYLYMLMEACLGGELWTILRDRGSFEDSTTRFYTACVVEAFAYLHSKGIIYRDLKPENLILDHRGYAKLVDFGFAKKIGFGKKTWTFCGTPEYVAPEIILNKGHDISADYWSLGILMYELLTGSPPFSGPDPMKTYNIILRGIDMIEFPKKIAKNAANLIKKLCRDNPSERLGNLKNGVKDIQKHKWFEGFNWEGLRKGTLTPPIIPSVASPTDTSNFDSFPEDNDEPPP

The target in experiment [4] is T4, Isoform Beta of cGMP-dependent protein kinase 1 [1-351,G306E] (Human, UniProt Q13976, G306E).
T4 construct: 1-351
T4 sequence (Q13976 as listed by the source G306E): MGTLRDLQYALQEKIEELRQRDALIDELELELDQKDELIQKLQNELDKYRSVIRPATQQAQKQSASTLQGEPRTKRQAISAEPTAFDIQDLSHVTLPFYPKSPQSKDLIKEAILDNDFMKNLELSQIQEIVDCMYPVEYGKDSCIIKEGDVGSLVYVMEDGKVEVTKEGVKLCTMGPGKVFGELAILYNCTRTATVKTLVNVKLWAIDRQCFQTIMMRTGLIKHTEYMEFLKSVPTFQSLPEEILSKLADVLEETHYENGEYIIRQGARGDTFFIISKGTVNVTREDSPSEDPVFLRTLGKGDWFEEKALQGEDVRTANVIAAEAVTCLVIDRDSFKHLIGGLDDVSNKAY

Experiment [5] concerns the target T5, Isoform Beta of cGMP-dependent protein kinase 1 [1-351,G182E] (Human, UniProt Q13976, G182E).
T5 construct: 1-351

In experiment [6] the target is T6, cGMP-dependent protein kinase 2 (Homo sapiens, UniProt Q13237).
T6 sequence (Q13237 whole entry): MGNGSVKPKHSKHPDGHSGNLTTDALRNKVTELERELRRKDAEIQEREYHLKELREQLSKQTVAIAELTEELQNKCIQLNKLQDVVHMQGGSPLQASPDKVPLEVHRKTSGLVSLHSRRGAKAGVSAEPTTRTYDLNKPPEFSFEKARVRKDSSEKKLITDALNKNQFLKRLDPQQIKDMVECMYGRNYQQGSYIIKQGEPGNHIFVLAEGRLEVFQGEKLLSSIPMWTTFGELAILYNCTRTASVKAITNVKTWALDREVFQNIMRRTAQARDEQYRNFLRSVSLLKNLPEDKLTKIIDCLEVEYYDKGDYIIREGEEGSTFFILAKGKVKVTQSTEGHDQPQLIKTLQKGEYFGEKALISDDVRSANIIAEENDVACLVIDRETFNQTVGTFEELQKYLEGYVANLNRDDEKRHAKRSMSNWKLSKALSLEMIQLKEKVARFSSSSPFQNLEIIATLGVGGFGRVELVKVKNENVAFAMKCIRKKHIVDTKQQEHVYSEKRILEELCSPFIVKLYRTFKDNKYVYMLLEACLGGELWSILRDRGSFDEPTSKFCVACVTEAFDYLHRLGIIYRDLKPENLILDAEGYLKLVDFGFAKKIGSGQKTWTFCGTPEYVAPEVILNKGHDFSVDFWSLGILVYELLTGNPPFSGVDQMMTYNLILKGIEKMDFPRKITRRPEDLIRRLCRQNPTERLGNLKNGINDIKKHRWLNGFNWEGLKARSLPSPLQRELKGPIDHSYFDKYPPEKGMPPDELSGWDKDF

In experiment [7] the target is T7, cGMP-dependent protein kinase 2 [41-418] (Human, UniProt Q13237).
T7 construct: 41-418
T7 sequence (Q13237 whole entry): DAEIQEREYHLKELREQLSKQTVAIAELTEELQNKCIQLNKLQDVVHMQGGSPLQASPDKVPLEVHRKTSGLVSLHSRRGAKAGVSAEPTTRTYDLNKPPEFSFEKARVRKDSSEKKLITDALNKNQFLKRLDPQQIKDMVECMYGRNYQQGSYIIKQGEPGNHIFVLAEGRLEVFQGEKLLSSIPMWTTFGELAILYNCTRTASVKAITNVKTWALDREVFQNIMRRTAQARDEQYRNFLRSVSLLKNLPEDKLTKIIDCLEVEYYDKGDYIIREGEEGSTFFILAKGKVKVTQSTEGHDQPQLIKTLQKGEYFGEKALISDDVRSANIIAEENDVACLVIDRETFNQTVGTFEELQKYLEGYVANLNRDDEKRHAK

Experiment [8] has as its target T8, cGMP-dependent protein kinase 2 [41-418,G356E] (Human, UniProt Q13237, G356E).
T8 construct: 41-418

T5 sequence (Q13976 as listed by the source G182E): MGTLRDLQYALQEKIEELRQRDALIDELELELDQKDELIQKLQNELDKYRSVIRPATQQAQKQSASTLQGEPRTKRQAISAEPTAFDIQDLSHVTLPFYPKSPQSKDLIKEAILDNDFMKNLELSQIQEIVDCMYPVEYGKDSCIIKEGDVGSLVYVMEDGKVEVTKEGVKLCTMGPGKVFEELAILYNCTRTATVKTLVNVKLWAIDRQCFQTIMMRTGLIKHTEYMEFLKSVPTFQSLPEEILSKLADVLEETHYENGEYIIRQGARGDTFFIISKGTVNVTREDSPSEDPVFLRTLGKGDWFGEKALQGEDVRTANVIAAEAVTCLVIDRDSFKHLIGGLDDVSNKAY
T8 sequence (Q13237 41-418 G356E): as the sequence (Q13237 41-418 G232E) above, with E192G, G316E counted along it

For the compound `Nc1nc(=O)c2nc(Sc3ccc(Cl)cc3)n([C@@H]3O[C@@H]4COP(=O)(O)O[C@H]4[C@H]3O)c2[nH]1` [8-pCP-cGMP], the EC50 in experiment [1] is 163 nM and 212 nM; in experiment [2], 184 nM and 116 nM; in experiment [3], 370 nM and 249 nM; in experiment [4] it was 4.2 nM and 7.7 nM; in experiment [5], 328 nM and 206 nM.
For the compound `Nc1nc(O)c2nc(Br)n([C@@H]3O[C@@H]4COP(=O)(O)O[C@H]4[C@H]3O)c2n1` [2-amino-8-bromo-9-[(2R,4aR,6R,7R,7aS)-2,7-dihydroxy-2-oxotetrahydro-2H,4H-2lambda~5~-furo[3,2-d][1,3,2]dioxaphosphinin-6-yl]-1,9-dihydro-6H-purin-6-one], the EC50 in experiment [1] worked out at 222 nM; in experiment [6] it was 58 nM; in experiment [7], 20 nM; in experiment [8] it was 30 nM; in experiment [2], 11 nM; in experiment [3], 206 nM. Besides, the EC50 is less than 2 nM in experiment [4] and 765 nM in experiment [5].
With `O=c1c2ncn([C@@H]3O[C@@H]4COP(=O)(O)O[C@H]4[C@H]3O)c2[nH]c2nc(-c3ccccc3)cn12` [PET-cGMP], the EC50 turned out to be 3.8 nM in experiment [1]; 225 nM in experiment [6]; 193 nM in experiment [7]; 5.3 nM in experiment [8]; 1960 nM in experiment [2]; 18 nM in experiment [3]. Besides, the EC50 in experiment [4] was less than 2 nM; in experiment [5], 5.8 nM.

Broadly, the EC50 is the concentration needed to bring the measured effect to its halfway point.
